Molecules are shown by their SMILES.

The nature of data set [1]: Pharmacokinetic study of DX121 (LC/MS in plasma). The settings on record: rat, oral 50 mg/kg, administered compound assayed. The class given is in vivo. From the text: The following study is a determination by LC/MS in plasma of the various molecules over 3 days (11 measurement points at the end). The graphs are always presented in comparison with DX101, which is the reference. […]

Data set [2] deals with MCF-7 mammary tumor cells. The data set can be described thus: cells. Type of data set: cell-based. To be noted: Homo sapiens, MCF7, 48 h, read-out: cellular viability relative to the control group. The method, then: (§1) A cell viability test was carried out on MCF-7 mammary tumor cells (Michigan Cancer Foundation-7) […] (ER(+) cells) containing receptors for the hormone estrogen.
(§2) The MCF-7 cells are in a cell culture medium identical to example 14 and are seeded in 12-well plates at 50000 cells per well for 24 h. 24 hours after seeding, the cells are treated with the solvate vehicle comprising water and ethanol with an ethanol ratio 1‰ and comprising 5α-hydroxy-6β-[2-(1H-imidazol-4-yl)-ethylamino]-cholestan-3β-yl propionate or 5α-hydroxy-6β-[2-(1H-imidazol-4-yl)-ethylamino]-cholestan-3β-ol at 1, 2.5 or 5 μM. The cells are observed in an inverted microscope and photographed with the microscope camera at 24 h and 48 h. The morphological changes of the cells at 1 μM are very slight.
Following these observations, a cell viability test is measured by MTT labeling at 48 hours. This test is based on the use of the tetrazolium salt MTT (3-(4,5-dimethylthiazol-2-yl)-2,5-diphenyltetrazolium bromide). Tetrazolium is reduced by mitochondrial succinate dehydrogenase of active living cells, in formazan, precipitate of violet color. The amount of precipitate formed is proportional to the quantity of living cells but also to the metabolic activity of each cell. […] After 48 hours, the medium is aspirated, the cells are washed with phosphate-buffered saline (PBS) and then incubated with MTT (0.5 mg/ml in PBS) for about 2 hours. The MTT solution is aspirated and then the violet crystals are dissolved in dimethylsulfoxide (DMSO). The OD (optical density) is measured at 540 nm.
The control group is carried out similarly to the study groups without adding the molecules studied in the present text. Compared to the control, a decrease is measured, dependent on the dose of […], in cellular viability in MTT for 5α-hydroxy-6β-[2-(1H-imidazol-4-yl)-ethylamino]-cholestan-3β-yl propionate and 5α-hydroxy-6β-[2-(1H-imidazol-4-yl)-ethylamino]-cholestan-3β-ol.

The subject of data set [3] is MCF-7 mammary tumor cells. The data set can be described thus: Morphology of MCF-7 cells under inverted microscope. The class given is cell-based. As for the experimental part:
as §1, §2
In this test: • The white vesicles reflect cell death by cytotoxic autophagy; • The cells that become rounded reflect cell death; • The cells that become detached reflect a cytotoxic effect; • The adherent cells reflect cell survival; • The supernatant cells reflect cell death; and • The refractive cells reflect cell death.

Data set [4] relates to 4T1 cells. Briefly: Cytotoxicity on 4T1 cells, LDH. The class given is cell-based, murine. To be noted: Mus musculus, 4T1, LDH, 48 h. The method, then:
(§3) The cellular viability tests were carried out on murine mammary tumor 4T1 cells characterized as negative triples (HER2−, ER−, PR−).
(§4) For this experiment, a cell culture medium was prepared. The culture medium consists of Dulbecco's Modified Eagle Medium (DMEM, marketed by Westburg under the reference LO BE12-604F), comprising 4.5 g/L glucose with L-glutamine, to which 10% of fetal calf serum (FCS) and 50 U/mL of penicillin/streptomycin are added. The 4T1 cells are introduced into this culture medium.
(§5) 96-well plates were seeded with 2000 4T1 cells per well. After 72 hours (h) of culture in normal conditions, i.e. in an incubator at a temperature of 37° C. at 5% CO2, the 4T1 cells are treated for 48 h with DX101, DX107, DX113, DX117, DX119, DX121 or DX131 at 100 nM, 1 μM, 2.5 μM and 10 μM. A control condition (CTL) is also carried out in parallel using the protocol described above but without treatment with the molecules DX101, DX107, DX113, DX117, DX119, DX121, DX131 or DX133.
For the second method, the percentage viability is determined using assay of the activity of the enzyme LDH (lactate dehydrogenase) in the cellular supernatants using the kit non radioactive cytotoxicity assay kit (Promega). LDH is an enzyme released in the supernatant of dead cells. The higher the LDH activity in the supernatant, the greater is the cell death. In this enzyme test, the LDH released converts a violet tetrazolium salt to formazan, of red color, absorbing at 490 nm. The intensity of the red color is proportional to the number of dead cells. After 48 h of treatment, the supernatants are transferred to a new 96-well plate and are incubated for 30 minutes in the presence of the substrate mix at room temperature. The reaction is stopped using the stop buffer and the absorbance is determined at 490 nm. The percentage cell death is determined here using a control 100% of maximum activity of LDH (carried out with untreated cells incubated in the presence of the lysis solution for 45 minutes at 37° C. just before adding the substrate mix), and the cellular viability in each well is then deduced from this percentage. IC50 is then determined as explained in the preceding paragraph.

Data set [5] has as its system 4T1 cells. Briefly: Cytotoxicity on 4T1 cells, MTT. The class given is cell-based, murine. To be noted: Mus musculus, 4T1, MTT, 48 h. The method, then:
as §3, §4, §5
Cellular viability is measured by three different methods. For the first method, MTT labeling is carried out at 48 hours. This test is based on the use of the tetrazolium salt MTT (3-(4,5-dimethylthiazol-2-yl)-2,5-diphenyltetrazolium bromide). The tetrazolium is reduced by mitochondrial succinate dehydrogenase of active living cells, to formazan, a precipitate of a violet color. The quantity of precipitate formed is proportional to the quantity of living cells but also to the metabolic activity of each cell. […] After 48 hours, the medium is aspirated, and the cells are incubated with MTT (0.5 mg/ml in culture medium) for about 3 hours. The MTT solution is aspirated and the violet crystals are dissolved in dimethylsulfoxide (DMSO). The OD (optical density) is measured at 550 nm. The percentage viability is then determined in each well relative to the CTL and the IC50 (concentration for which there are still 50% of living cells) is determined for each molecule with Prism software using the nonlinear regression straight line (log(inhibitor) vs. Response).

The mark [6] stands for this setting: log of IC50 in μM, read-out: Mean LogIC50 (±SEM) (converted).

In data set [1], `CC(C)CCC[C@@H](C)[C@H]1CC[C@H]2[C@@H]3C[C@@H](NCCc4c[nH]cn4)[C@@]4(O)C[C@@H](O)CC[C@]4(C)[C@H]3CC[C@]12C` [DX101, 5α-hydroxy-6β-[2-(1H-imidazol-4-yl)-ethylamino]-cholestan-3β-ol, reference compound] yielded a Concentration max of 150 nM. Besides, the Area under curve in data set [1] (0-72 h) is on record as 3019. Further, in data set [2], the viability at 2.5 µM was about 60% and the viability at 5 µM is about 18%. The “Morphological observations at 24 hours” value in data set [3] (MCF-7, 1 μM, 24 h) was “Some white vesicles”. The “Observations at 48 hours” value in data set [3] (MCF-7, 5 μM, 48 h) is on record as “All the cells are supernatant”.
As to `CCC(=O)O[C@H]1CC[C@]2(C)[C@H]3CC[C@]4(C)[C@@H]([C@H](C)CCCC(C)C)CC[C@H]4[C@@H]3C[C@@H](NCCc3c[nH]cn3)[C@@]2(O)C1` [DX107, 5α-hydroxy-6β-[2-(1H-imidazol-4-yl)ethylamino]cholestan-3β-yl propionate], the IC50 is 3.31 µM with 4T1 cells [4] (setting [6]), 3.29 µM in the data set on 4T1 cells [4] (read-out: IC50), 3.8 µM in the data set on 4T1 cells [5] (setting [6]) and 3.79 µM in the data set with 4T1 cells [5] (read-out: IC50). For the same compound, in data set [2], the viability at 2.5 µM is about 95%. The viability at 5 µM in data set [2] was about 18%.

A word on the viability: it is a read-out of living cells in per cent, often relative to untreated cells.

Values taken from patent US20240002429A1, “PRODRUG OF 5a-HYDROXY-6ß-[2-(1H-IMIDAZOL-4-YL)ETHYLAMINO]CHOLESTAN-3ß-OL AND PHARMACEUTICAL COMPOSITIONS COMPRISING SAME FOR USE IN THE TREATMENT OF CANCER” (priority 2020, published 2024).
